Measured values taken from US10131642B1, “Aldosterone synthase inhibitors” (Boehringer Ingelheim International GmbH, priority 2015, dated 2018).

Legend:
[1] = target: T1, aldosterone synthase (CYP11B2) (Macaca fascicularis, UniProt A0A2K5UPL9); test: Inhibition of aldosterone synthase (cynomolgus adrenal mitochondria, aldosterone by mass spectrometry); type: biochemical, cynomolgus monkey; settings: cynomolgus adrenal gland mitochondria, 2 μM corticosterone substrate, 90 minutes at 37° C.
T1 construct: cynomolgus adrenal gland mitochondria as the source of aldosterone synthase (CYP11B2); from tissue; host or cells: cynomolgus monkey adrenal gland mitochondria
T1 sequence (A0A2K5UPL9 1-503): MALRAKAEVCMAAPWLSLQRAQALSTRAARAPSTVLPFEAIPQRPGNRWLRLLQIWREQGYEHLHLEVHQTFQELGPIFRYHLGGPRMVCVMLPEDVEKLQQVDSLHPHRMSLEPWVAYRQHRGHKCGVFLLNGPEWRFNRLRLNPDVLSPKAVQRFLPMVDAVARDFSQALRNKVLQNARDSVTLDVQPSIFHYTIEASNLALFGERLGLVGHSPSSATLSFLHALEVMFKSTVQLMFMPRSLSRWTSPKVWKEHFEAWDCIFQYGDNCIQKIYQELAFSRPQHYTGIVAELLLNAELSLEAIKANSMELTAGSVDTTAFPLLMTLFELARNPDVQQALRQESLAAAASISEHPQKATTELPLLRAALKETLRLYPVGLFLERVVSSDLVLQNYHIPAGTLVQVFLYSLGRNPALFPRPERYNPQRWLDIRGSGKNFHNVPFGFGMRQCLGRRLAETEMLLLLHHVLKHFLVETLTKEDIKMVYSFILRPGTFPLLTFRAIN
Summary of the method: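 Cynomolgus adrenal mitochondria (50 units CYP11B2 activity) with 2 μM corticosterone in 100 mM potassium phosphate pH 7.4, 1% DMSO. Started with 1 mM NADPH, 90 min at 37° C. Aldosterone measured by mass spectrometry; IC50 from 4-parameter logistic fit, NADPH-free reactions as blank.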

[2] = target: cortisol synthase (CYP11B1) (Macaca fascicularis, UniProt A0A2K5ULY1); test: Inhibition of cortisol synthesis (cynomolgus adrenal mitochondria, cortisol by mass spectrometry); type: biochemical, cynomolgus monkey; settings: cynomolgus adrenal gland mitochondria, 11-deoxycortisol as substrate, cortisol measured as product; read-out: CYP11B1 Inhibition IC50
Summary of the method: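 Cynomolgus adrenal mitochondria supplied CYP11B1 (150 units) with 11-deoxycortisol as substrate, plus NADPH; cortisol product measured by mass spectrometry. Activity expressed as % of compound-free NADPH control across compound concentrations; IC50 from 4-parameter logistic fit.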

SMILES | IC50 [1] [nM] | IC50 [2] [µM]
CC(C)C1CC(=O)c2c(noc2CC2CCOCC2)C1 (centres unmarked) [Cpd 7, 6-Isopropyl-3-(tetrahydro-pyran-4-ylmethyl)-6,7-dihydro-5H-benzo[c]isoxazol-4-one] | 33 | 20
O=C1CC(CC2CC2)Cc2noc(Cc3ccccc3)c21 (centres unmarked) [Cpd 2, 3-Benzyl-6-cyclopropylmethyl-6,7-dihydro-5H-benzo[c]isoxazol-4-one] | 11 | 5
CC1CC(=O)c2c(noc2Cc2ccc(C(=O)N3CCN(C)C(=O)C3)cc2)C1 (stereo not drawn) [Cpd 66, 6-Methyl-3-[4-(4-methyl-3-oxo-piperazine-l-carbonyl)-benzyl]-6,7-dihydro-5H-benzo[c]isoxazol-4-one] | 120 | 5
CS(=O)(=O)CCCOc1ccc(Cc2onc3c2C(=O)CC(CC2CC2)C3)cc1 (centres unmarked) [Cpd 24, 6-Cyclopropylmethyl-3-[4-(3-methanesulfonyl-propoxy)-benzyl]-6,7-dihydro-5H-benzo[c]isoxazol-4-one] | 17 | 1.3
CC(C)C1CC(=O)c2c(noc2CC2CC2)C1 (centres unmarked) [Cpd 6, 3-Cyclopropylmethyl-6-isopropyl-6,7-dihydro-5H-benzo[c]isoxazol-4-one] | 27 | 21
CC(C)C1CC(=O)c2c(noc2Cc2ccc(C(N)=O)cc2)C1 (centres unmarked) [Cpd 76, 4-(6-Isopropyl-4-oxo-4,5,6,7-tetrahydro-benzo[c]isoxazol-3-ylmethyl)-benzamide] | 25 | 0.53
CC1CC(=O)c2c(noc2Cc2ccc(C(=O)O)cc2)C1 (centres unmarked) [Cpd 41, 4-(6-Methyl-4-oxo-4,5,6,7-tetrahydro-benzo[c]isoxazol-3-ylmethyl)-benzoic acid] | 660 | 20
CC1(C)Cc2noc(Cc3ccc(C#N)cc3)c2C(=O)O1 [Cpd 87, 4-(6,6-Dimethyl-4-oxo-6,7-dihydro-4H-pyrano[4,3-c]isoxazol-3-ylmethyl)-benzonitrile] | 220 | 77
CC1(C)CC(=O)c2c(noc2Cc2cccc(F)c2)C1 [Cpd 31, 3-(3-Fluoro-benzyl)-6,6-dimethyl-6,7-dihydro-5H-benzo[c]isoxazol-4-one] | 84 | 7.4

More lines, now with the values ahead:

IC50 [1] [nM] | IC50 [2] [µM] | SMILES
29 | 2.8 | CC1(C)CC(=O)c2c(noc2Cc2ccc(I)cc2)C1 [Cpd 25, 3-(4-Iodo-benzyl)-6,6-dimethyl-6,7-dihydro-5H-benzo[c]isoxazol-4-one]
110 | 9.3 | CN(CCS(C)(=O)=O)C(=O)c1ccc(Cc2onc3c2C(=O)CC(C)(C)C3)cc1 [Cpd 64, 4-(6,6-Dimethyl-4-oxo-4,5,6,7-tetrahydro-benzo[c]isoxazol-3-ylmethyl)-N-(2-methanesulfonyl-ethyl)-N-methyl-benzamide]
58 | 2.5 | CC1(C)CC(=O)c2c(noc2Cc2ccc(C(=O)NCCS(N)(=O)=O)cc2)C1 [Cpd 54, 4-(6,6-Dimethyl-4-oxo-4,5,6,7-tetrahydro-benzo[c]isoxazol-3-ylmethyl)-N-(2-sulfamoyl-ethyl)-benzamide]
98 | 20 | CC1(C)CC(=O)c2c(noc2Cc2ccc(C(=O)N3CCNC(=O)C3)cc2)C1 [Cpd 62, 6,6-Dimethyl-3-[4-(3-oxo-piperazine-1-carbonyl)-benzyl]-6,7-dihydro-5H-benzo[c]isoxazol-4-one]
73 | 7.4 | CC1(C)CC(=O)c2c(noc2Cc2ccc(OCCS(C)(=O)=O)cc2)C1 [Cpd 29, 3-[4-(2-Methanesulfonyl-ethoxy)-benzyl]-6,6-dimethyl-6,7-dihydro-5H-benzo[c]isoxazol-4-one]
68 | 5.4 | CCN(CCO)C(=O)c1ccc(Cc2onc3c2C(=O)CC(C)(C)C3)cc1 [Cpd 55, 4-(6,6-Dimethyl-4-oxo-4,5,6,7-tetrahydro-benzo[c]isoxazol-3-ylmethyl)-N-ethyl-N-(2-hydroxy-ethyl)-benzamide]
56 | 6.5 | CC1(C)CC(=O)c2c(noc2Cc2ccc(OCCS(C)(=N)=O)cc2)C1 (centres unmarked) [Cpd 85, 3-[4-(2-Methanesulfoximine-ethoxy)-benzyl]-6,6-dimethyl-6,7-dihydro-5H-benzo[c]isoxazol-4-one]
